According to US20200315233A1, “METHODS AND COMPOSITIONS FOR TREATMENT OF HYPERCALCIURIA AND NEPHROLITHIASIS” (Ana Pharmaceuticals, Inc., priority 2016, published 2020):

Tests used:
[1] = tested on: patients with nephrolithiasis that were found to have hypercalciuria (>200 mg/24 hr); assay: 24 hour urine calcium before and on vitamin K2 (MK7, MK4) in nephrolithiasis patients with hypercalciuria; assay type: in vivo, human
Excerpt: Patients with hypercalciuria who were not on anticoagulants were routinely recommended vitamin K2 supplementation. […] All patients also received standard treatments for any other stone risk factor found in their work-up. As is routine, these patients were asked to repeat the 24 hr urine test, to evaluate response to treatment. […] This compared favorably to the 30-50% expected decrease in calcium when a thiazide diuretic is prescribed. See Martins, M. C., et al., Br J Urol, 1996. 78(2): p. 176-80. Furthermore, the calcium lowering effect of vitamin K2 was independent of the presence and treatment of other stone risk factors.
The average decrease in urine calcium in all eight patients was about 43%. […] (Table 1)

[2] = tested on: hypercalciuric subjects; details: cited from earlier work
[3] = MK7 100-150 mcg daily or bid for at least 3 weeks

CC(C)=CCC/C(C)=C/CC/C(C)=C/CC/C(C)=C/CC/C(C)=C/CC/C(C)=C/CC/C(C)=C/CC1=C(C)C(=O)c2ccccc2C1=O [MK7]
On Vitamin K Urine Calcium ([1]; Case 1, no prior regimen, before 650 mg/24 hr, on allopurinol 300 mg daily + MK7 100 mcg daily): 262 mg/24 hr | % diff of urine calcium ([1]; Case 1, on allopurinol 300 mg daily + MK7 100 mcg daily vs before vitamin K): −60% | % diff of urine calcium ([1]; Case 2, MK7 50 mcg bid with KCitrate, MgOxide, MgCitrate, Vitamin B6, allopurinol vs before vitamin K): −54% | On Vitamin K Urine Calcium ([1]; Case 2, no prior regimen, before 312 mg/24 hr, on KCitrate 99 mg bid, MgOxide 90 mg bid, MgCitrate 90 mg bid, Vitamin B6 7.5 mg bid, allopurinol 300 mg daily, MK7 50 mcg bid): 145 mg/24 hr | % diff of urine calcium ([1]; Case 3, KCitrate 200 mg daily + MK7 120 mcg bid vs before vitamin K): −51% | On Vitamin K Urine Calcium ([1]; Case 3, no prior regimen, before 321 mg/24 hr, on KCitrate 200 mg daily + MK7 120 mcg bid): 158 mg/24 hr | % diff of urine calcium ([1]; Case 4, KCitrate 1080 mg tid + MK7 100 mcg bid vs before vitamin K): −61% | On Vitamin K Urine Calcium ([1]; Case 4, before KCitrate 1080 mg bid, 320 mg/24 hr, on KCitrate 1080 mg tid + MK7 100 mcg bid): 124 mg/24 hr | On Vitamin K Urine Calcium ([1]; Case 5, before 326 mg/24 hr on allopurinol 300 mg daily, KCitrate, MgOxide, MgCitrate, Vitamin B6, on allopurinol 100 mg daily, same background + MK7 120 mcg bid): 225 mg/24 hr | % diff of urine calcium ([1]; Case 6, MK7 120 mcg bid with HCTZ, KCitrate, MgOxide, MgCitrate, Vitamin B6 vs before vitamin K): +2% | On Vitamin K Urine Calcium ([1]; Case 6, before HCTZ 12.5 mg daily, 332 mg/24 hr, on HCTZ 12.5 mg daily, KCitrate 99 mg bid, MgOxide 90 mg bid, MgCitrate 90 mg bid, Vitamin B6 7.5 mg bid, MK7 120 mcg bid): 340 mg/24 hr | % diff of urine calcium ([1]; Case 7, MK7 150 mcg daily added to stable background regimen vs before vitamin K): −73% | On Vitamin K Urine Calcium ([1]; Case 7, before 314 mg/24 hr on KCitrate, MgOxide, MgCitrate, Vitamin B6, HCTZ 25 mg bid, prednisone, vitD3, allopurinol, same regimen + MK7 150 mcg daily): 84 mg/24 hr | % diff of urine calcium ([1]; Case 8, MK7 120 mcg daily with CaCitrate, KCitrate, MgOxide, MgCitrate, Vitamin B6 vs before vitamin K): −15% | On Vitamin K Urine Calcium ([1]; Case 8, before CaCitrate 630 mg bid, 376 mg/24 hr, on CaCitrate 630 mg tid, KCitrate 99 mg bid, MgOxide 90 mg bid, MgCitrate 90 mg bid, Vitamin B6 7.5 mg bid, MK7 120 mcg daily): 321 mg/24 hr | Low Dose MK7 UCa ([1]; F 74, CaCitrate 630 mg tid, KCitrate 99 mg bid, MgOxide 90 mg bid, MgCitrate 90 mg bid, Vitamin B6 7.5 mg bid, MK7 120 mcg daily): 321 mg/24 hr | average decrease in urine calcium in all eight patients [1, 3]: about 43% | increase in urinary calcium in the one patient that showed no response [1, 3]: 2% | patients that exhibited a decrease in urinary calcium of greater than about 50% [1, 3]: 5 out of 8 | % diff of urine calcium, mean ([1]; mean of cases 1-8, on vitamin K (MK7) vs before): −43% | % diff of urine calcium, median ([1]; median of cases 1-8, on vitamin K (MK7) vs before): −52% | average decrease in the excretion of calcium in the urine ([1]; seven of the eight patients, 24 hr urine): 49%

CC(C)=CCC/C(C)=C/CC/C(C)=C/CC/C(C)=C/CC1=C(C)C(=O)c2ccccc2C1=O [MK4]
% difference of urine calcium, high dose MK4 vs low dose MK7 ([1]; F 74, MK4 15 mg daily vs MK7 120 mcg daily, same background): −40% | High Dose MK4 Urine Calcium ([1]; F 74, same background regimen, changed from MK7 120 mcg daily to MK4 15 mg daily): 191 mg/24 hr | additional decrease in 24 hour urine calcium excretion ([1]; one patient, change from MK7 120 mcg daily to MK4 15 mg daily): about 40%

vitamin K2
decrease of urinary calcium excretion ([1]; cases 1, 2 and 3, vitamin K administered together with other agents): > 50% | decrease in urine calcium levels ([1]; many patients, within a month of therapy): more than 40%

CC1=C(C/C=C(\C)CCC[C@H](C)CCC[C@H](C)CCCC(C)C)C(=O)c2ccccc2C1=O [vitamin K1]
subjects that had a decrease in urinary calcium ([2]; hypercalciuric subjects): 60% | average reduction in urinary calcium ([2]; patients with a similar level of pre-treatment hypercalciuria): less than 15%
